US6660468B1, “Vitro and in vivo models for screening compounds to prevent glucocorticoid-induced bone destruction” (Board of Trustees of the University of Arkansas, priority 1998, dated 2003)
Values joined by “and” are separate entries in the source; they are usually repeats but may differ in a detail not shown here. Equal values may be shown once.

Experiments:
[1] = tested on: human osteoblasts and osteocytes; test: Apoptosis (TUNEL) in transiliac bone biopsies of patients with glucocorticoid-induced osteoporosis; type: in vivo; settings: two patients
Description: Sections were mounted on silane-coated glass slides (Scientific Device Lab, Inc., Des Plains, Ill.), deplasticized and incubated in 10 mM citrate buffer, pH 7.6, in a microwave oven at 98° C. for 5 minutes. Slides were then incubated with 0.5% pepsin for 30 minutes at 37° C. Apoptotic cells were detected by the TUNEL reaction (transferase-mediated biotin-dUTP nick end-labeling) using Klenow terminal deoxynucleotidyl transferase (Oncor, Gaithersburg, Md.) in sections counterstained with 1% methyl green. The TUNEL reaction was noted within cell nuclei and the cells whose nuclei were clearly brown from the peroxidase-labeled anti-digoxigenin antibody instead of the blue-green from the methyl green were interpreted as positive. Plastic-embedded sections of weaned rat mammary tissue were used as a positive control. Negative controls were made by omitting the transferase. Morphological changes characteristic of apoptosis were examined carefully to minimize ambiguity regarding the interpretation of results. With these precautions, TUNEL has been unequivocally associated with apoptosis (19). […] Apoptosis was also assessed in transiliac bone biopsy specimens taken from two patients with glucocorticoid-induced osteoporosis (receiving 15 to 25 mg/d of prednisone for 3 to 6 yr) and from 12 age-, sex- and race-matched controls (13). […]

human cancellous bone = test: Bone histomorphometry of transiliac bone biopsies of patients; type: in vivo; settings: two patients
Description: The distal femora and lumbar vertebrae were fixed in 4° C. Millonig's phosphate-buffered 10% formalin, pH 7.4, embedded undecalcified in methyl methacrylate and stained (7,9,13). The histomorphometric examination was done with a computer and digitizer tablet (OsteoMetrics Inc. Version 3.00, Atlanta, Ga.) interfaced to a Zeiss Axioscope (Carl Zeiss, Inc., Thornwood, N.Y.) with a drawing tube attachment. All cancellous measurements were two-dimensional, confined to the secondary spongiosa and made at ×400 magnification (numerical aperture 0.75). The terminology and units used are those recommended by the Histomorphometry Nomenclature Committee of the American Society for Bone and Mineral Research (14). The trabecular width and osteoid width were measured directly. Trabecular spacing and number were calculated (15). Only TRAPase-positive cells were included in the osteoclast perimeter. The rate of bone formation (μm^2/μm/d) and turnover (%/d) were calculated (7).
Sections were mounted on silane-coated glass slides (Scientific Device Lab, Inc., Des Plains, Ill.), deplasticized and incubated in 10 mM citrate buffer, pH 7.6, in a microwave oven at 98° C. for 5 minutes. Slides were then incubated with 0.5% pepsin for 30 minutes at 37° C. Apoptotic cells were detected by the TUNEL reaction (transferase-mediated biotin-dUTP nick end-labeling) using Klenow terminal deoxynucleotidyl transferase (Oncor, Gaithersburg, Md.) in sections counterstained with 1% methyl green. The TUNEL reaction was noted within cell nuclei and the cells whose nuclei were clearly brown from the peroxidase-labeled anti-digoxigenin antibody instead of the blue-green from the methyl green were interpreted as positive. Plastic-embedded sections of weaned rat mammary tissue were used as a positive control. Negative controls were made by omitting the transferase. Morphological changes characteristic of apoptosis were examined carefully to minimize ambiguity regarding the interpretation of results. With these precautions, TUNEL has been unequivocally associated with apoptosis (19). […] Apoptosis was also assessed in transiliac bone biopsy specimens taken from two patients with glucocorticoid-induced osteoporosis (receiving 15 to 25 mg/d of prednisone for 3 to 6 yr) and from 12 age-, sex- and race-matched controls (13). Two longitudinal sections were examined from each patient and control subject. Osteoblasts were identified as cuboidal cells lining the osteoid-covered trabecular perimeter (7,9,13). Osteocytes were identified inside lacunae in mineralized bone.

**Q.** With `C[C@]12C=CC(=O)C=C1CC[C@@H]1[C@@H]2C(=O)C[C@@]2(C)[C@H]1CC[C@]2(O)C(=O)CO` [prednisone] as the molecule, how does the “Apoptosis of osteoclasts or cortical osteocytes” value [1] read?
**A.** The value was “not observed”.

**Q.** And the “Apoptotic osteoblasts in cancellous bone” value ([1]; 15 to 25 mg/d for 3 to 6 yr, absent in controls)?
**A.** The value was about 30%.

**Q.** And the Cancellous bone area (human cancellous bone; one value each, normal is 22.4±1.2 SEM)?
**A.** Its Cancellous bone area is 11.1% and 8.8%.

**Q.** What about the Osteoclast perimeter (human cancellous bone; normal is 0.9±0.2) of the same molecule?
**A.** Its Osteoclast perimeter is 0% and 0.4%.

**Q.** What about the Reversal perimeter (human cancellous bone; normal is 6.9±0.7) of the same molecule?
**A.** Its Reversal perimeter is 13.5% and 15.4%.

**Q.** And the Osteoblast perimeter (human cancellous bone; normal is 7.6±0.4)?
**A.** The Osteoblast perimeter was 2.1% and 2.3%.

**Q.** What about the Trabecular width (human cancellous bone; normal is 161±9) of the same molecule?
**A.** The Trabecular width was 62 μm and 118 μm.
